The record followed here is ChEMBL document CHEMBL1131358, “An approach to use an unusual adenosine transporter to selectively deliver polyamine analogues to trypanosomes” (Bioorg Med Chem Lett, 1998).

Test [1] concerns Trypanosoma brucei. The test is described as follows: Inhibitory activity against adenosine uptake through P2 adenosine transporter of blood stream Trypanosoma brucei trypomastigotes at the concentration 10 ug/mL.
The test system of test [2] is Trypanosoma brucei. The test is described as follows: Inhibitory activity against adenosine uptake through P2 adenosine transporter of blood stream Trypanosoma brucei trypomastigotes at the concentration 100 ug/mL.
In test [3] the test system is Trypanosoma brucei. The test is described as follows: Inhibitory activity against adenosine uptake through P2 adenosine transporter of blood stream Trypanosoma brucei trypomastigotes at the concentration 1 ug/mL.
Test [4] relates to Trypanosoma brucei brucei. The test can be described thus: In vitro activity against bloodstream from trypomastigotes. In kind it is functional, organism-based.
The subject of test [5] is Trypanosoma brucei brucei. The test can be described thus: In vitro activity against Trypanosoma brucei trypomastigotes form. In kind it is functional, organism-based.

For `NCCCNCCCCCCCNCCCNc1nc(N)nc(N)n1`, the inhibition is 32% with Trypanosoma brucei [1], 77% in the test on Trypanosoma brucei [2] and 12% in the test on Trypanosoma brucei [3]. This compound also returned an IC50 in test [4] of 21 µM.

As to `N=C(N)c1ccc(/N=N/Nc2ccc(C(=N)N)cc2)cc1` [DIMINAZENE], the results for the inhibition in the test with Trypanosoma brucei [1], in the test with Trypanosoma brucei [2] and with Trypanosoma brucei [3] were 84%, 99% and 67%, respectively. In addition, the IC50 in test [4] worked out at 0.003 µM.

Take `NCCCCN(CCCN)c1nc(N)nc(N)n1`: the inhibition was determined as 47% with Trypanosoma brucei [1], 73% with Trypanosoma brucei [2] and 29% with Trypanosoma brucei [3]. The IC50 in test [5] is above 270 µM.

For the compound `NCCCCN(CCCN)CCCNc1nc(N)nc(N)n1`, the inhibition is 5% in the test on Trypanosoma brucei [1], 61% in the test on Trypanosoma brucei [2] and 7% with Trypanosoma brucei [3]. The same compound returned an IC50 in test [5] above 200 µM.

Turning to `NCCCNCCCCN(CCCN)c1nc(N)nc(N)n1`, the inhibition came to 44% in the test with Trypanosoma brucei [1], 60% with Trypanosoma brucei [2] and 24% in the test on Trypanosoma brucei [3]. In test [5], this compound yielded an IC50 of 12 µM.

Regarding `Nc1[nH]cnc2ncnc1-2`, the inhibition in the test on Trypanosoma brucei [1] came to 89%; in the test with Trypanosoma brucei [2], 99%; in the test on Trypanosoma brucei [3], 88%.

As to `Nc1nc(N)nc(NCCCNCCCNCCCCCCCNCCCNCCCNc2nc(N)nc(N)n2)n1`, the values for the inhibition in the test on Trypanosoma brucei [1], in the test on Trypanosoma brucei [2] and with Trypanosoma brucei [3] were 18%, 88% and 0%, respectively. In addition, the IC50 in test [4] was 24 µM.

On to `NCCCNCCCCN(CCCN)CCCNc1nc(N)nc(N)n1`, for which the inhibition was 17% in the test on Trypanosoma brucei [1], 37% in the test on Trypanosoma brucei [2] and 2% in the test on Trypanosoma brucei [3]. For the same compound, the IC50 in test [5] was 24 µM.

Turning to `Nc1nc(N)nc(NCCCNCCCCCCCNCCCNc2nc(N)nc(N)n2)n1`, the inhibition in the test on Trypanosoma brucei [1] stood at 63%; in the test with Trypanosoma brucei [2], 93%; with Trypanosoma brucei [3], 36%. Half-maximal inhibition in test [4] (IC50) required 110 µM.
